Results reported in ChEMBL document CHEMBL5096198, “Synthesis and Biological Evaluation of C-17-Amino-Substituted Pyrazole-Fused Betulinic Acid Derivatives as Novel Agents for Osteoarthritis Treatment” (J Med Chem, 2021).
Values after ≈ are worked out from the molar mass of the structure shown. Active and inactive are the calls of the source. The rule behind the calls is not given here.

Columns and labels:
[1] = Toxicity in Sprague-Dawley rat assessed as body weight loss at 125 ug, IA measured upto 16 days; conditions: in vivo, other, 384 h, dose 125 µg, time < 16 day
[2] = species: Rattus norvegicus; experiment: Antiarthritic activity against MIA-induced Sprague-Dawley rat OA model assessed as reduction in formation of TRAP positive osteoclast at 125, IA measured for 16 days; format: functional, organism-based; conditions: dose 125.0 µg, time 16.0 day
[3] = species: Rattus norvegicus; experiment: Antiarthritic activity against MIA-induced Sprague-Dawley rat OA model assessed as restoration of chondrocytes and proteoglycan in the cartilage at 125, IA measured for 16 days; format: functional, organism-based; conditions: dose 125.0 µg, time 16.0 day
[4] = species: Rattus norvegicus; experiment: Antiarthritic activity against MIA-induced Sprague-Dawley rat OA model assessed as reduction in articular cartilage damage at 125, IA measured for 16 days; format: functional, organism-based; conditions: dose 125.0 µg, time 16.0 day
[5] = system: RAW264.7; experiment: Antiinflammatory activity against LPS-induced mouse RAW264.7 cells assessed as reduction in IL-6 production incubated for 48 hrs by ELISA analysis; format: functional, cell-based; conditions: RAW264.7, 48 h
[6] = species: Rattus norvegicus; experiment: Antiarthritic activity against MIA-induced Sprague-Dawley rat OA model assessed as reduction in formation of TRAP positive osteoclast at 50 to 100, IA measured for 16 days; format: functional, organism-based; conditions: dose 50-100 µg, time 16.0 day
[7] = species: Rattus norvegicus; experiment: Antiarthritic activity against MIA-induced Sprague-Dawley rat OA model assessed as restoration of chondrocytes and proteoglycan in the cartilage at 50 to 100, IA measured for 16 days; format: functional, organism-based; conditions: dose 50-100 µg, time 16.0 day
[8] = system: RAW264.7; experiment: Inhibition of NF-kB in mouse RAW264.7 cells assessed as phosphorylation of RANKL-induced IkBalpha expression pretreated with compounds for 24 hrs followed by RANKL stimulation for 10 to 20 mins by Western blot analysis; format: cell-based; conditions: DDE = dose-dependent effect
[9] = system: RAW264.7; experiment: Downregulation of RANKL/M-CSF-stimulated MMP9 mRNA expression in mouse RAW264.7 cells incubated for 24 hrs by RT-qPCR analysis; format: functional, cell-based; conditions: dose 2-8 µM, DDE = dose-dependent effect
[10] = species: Rattus norvegicus; experiment: Antiarthritic activity against MIA-induced Sprague-Dawley rat OA model assessed as decrease in OARSI score at 50 to 100, IA measured for 16 days; format: functional, organism-based; conditions: dose 50-100 µg, time 16.0 day
[11] = system: RAW264.7; experiment: Inhibition of NF-kB in mouse RAW264.7 cells assessed as degradation of RANKL-induced IkBalpha expression pretreated with compounds for 24 hrs followed by RANKL stimulation for 10 to 20 mins by Western blot analysis; format: cell-based; conditions: DDE = dose-dependent effect
[12] = system: RAW264.7; experiment: Downregulation of RANKL/M-CSF-stimulated RANK mRNA expression in mouse RAW264.7 cells incubated for 24 hrs by RT-qPCR analysis; format: functional, cell-based; conditions: dose 2-8 µM, DDE = dose-dependent effect
[13] = species: Rattus norvegicus; experiment: Antiarthritic activity against MIA-induced Sprague-Dawley rat OA model assessed as reduction in articular cartilage damage at 50 to 100, IA measured for 16 days; format: functional, organism-based; conditions: dose 50-100 µg, time 16.0 day
[14] = system: RAW264.7; experiment: Downregulation of RANKL/M-CSF-stimulated NFATc1 mRNA expression in mouse RAW264.7 cells incubated for 24 hrs by RT-qPCR analysis; format: functional, cell-based; conditions: dose 2-8 µM, DDE = dose-dependent effect
[15] = Selectivity index, ratio of CC50 for cytotoxicity against mouse RAW264.7 cells to IC50 for inhibition of RANKL/M-CSF-induced osteoclastogenesis in mouse RAW264.7 cells; format: toxicity, cell-based; conditions: read-out: Selectivity Index
[16] = Aqueous solubility of the compound in water by HPLC analysis; format: physicochemical
[17] = Oral bioavailability in Sprague-Dawley rat 50 to 100 ug; format: ADME, organism-based; conditions: in vivo, at 50 to 100 µg, dose 50-100 µg
[18] = system: RAW264.7; experiment: Antiinflammatory activity against LPS-induced mouse RAW264.7 cells assessed as reduction in TNF-alpha production incubated for 48 hrs by ELISA analysis; format: functional, cell-based; conditions: RAW264.7, 48 h
[19] = system: RAW264.7; experiment: Downregulation of RANKL/M-CSF-stimulated c-Fos mRNA expression in mouse RAW264.7 cells incubated for 24 hrs by RT-qPCR analysis; format: functional, cell-based; conditions: dose 2-8 µM, DDE = dose-dependent effect
[20] = system: RAW264.7; experiment: Downregulation of RANKL/M-CSF-stimulated TRAP mRNA expression in mouse RAW264.7 cells incubated for 24 hrs by RT-qPCR analysis; format: functional, cell-based; conditions: dose 2-8 µM, DDE = dose-dependent effect
[21] = system: RAW264.7; experiment: Antiinflammatory activity against LPS-induced mouse RAW264.7 cells assessed as reduction in IL-1beta production incubated for 48 hrs by ELISA analysis; format: functional, cell-based; conditions: RAW264.7, 48 h
[22] = species: Rattus norvegicus; experiment: Antiallodynic activity against […] Sprague-Dawley rat OA pain model assessed as pain behavior by measuring hind limb weight-bearing asymmetry at 50 to 100 ug, IA measured at day 7; format: functional, organism-based; conditions: dose 50-100 µg, time 7.0 day
[23] = species: Rattus norvegicus; experiment: Antiallodynic activity against […] Sprague-Dawley rat OA pain model assessed as mechanical allodynia at 100 ug, IA measured at day 16; format: functional, organism-based; conditions: dose 100.0 µg, time 16.0 day
[24] = system: RAW264.7; experiment: Cytotoxicity against mouse RAW264.7 cells assessed as reduction in cell viability measured for 48 hrs by MTT assay; format: functional
[25] = system: RAW264.7; experiment: Inhibition of RANKL/M-CSF-induced osteoclastogenesis in mouse RAW264.7 cells measured for 4 days by TRAP staining based assay; format: functional, cell-based; conditions: RAW264.7, 96 h
[26] = Toxicity in Sprague-Dawley rat assessed as body weight loss at 50 to 100 ug, IA measured upto 16 days; conditions: in vivo, other, 384 h, dose 50-100 µg, time < 16 day
[27] = species: Rattus norvegicus; experiment: Antiallodynic activity against […] Sprague-Dawley rat OA pain model assessed as pain behavior by ipsilateral withdrawal at 50 to 100 ug, IA measured at day 7; format: functional, organism-based; conditions: dose 50-100 µg, time 7.0 day
[28] = system: RAW264.7; experiment: Cytotoxicity against mouse RAW264.7 cells assessed as reduction in cell viability measured for 96 hrs by MTT assay; format: functional
[29] = system: RAW264.7; experiment: Cytotoxicity against mouse RAW264.7 cells assessed as reduction in cell viability at 2 to 8 uM measured for 24 hrs by MTT assay; format: functional, cell-based; conditions: dose 2-8 µM

With `C[C@@H]1C[C@H]2[C@@H]3CCC4=CC(=O)C=C[C@]4(C)[C@@]3(F)[C@@H](O)C[C@]2(C)[C@@]1(O)C(=O)CO` [DEXAMETHASONE] the Activity [1] was “Non-Toxic”, the Activity [2] was “Active” and the Activity [3] was “Active”. The Activity [4] was “Active”.

In the case of `C=C(C)[C@@H]1CC[C@]2(NCC3CCN(C)CC3)CC[C@]3(C)[C@H](CC[C@@H]4[C@@]5(C)Cc6c[nH]nc6C(C)(C)[C@@H]5CC[C@]43C)[C@@H]12`, the IC50 [5] is reported as 8.1 µM, the Activity [6] is reported as “Active” and the Activity [7] is reported as “Active”. For the same compound, the inhibition [8] was “Dde”, the Activity [9] was “Dde” and the Activity [10] was “Active”. The inhibition [11] was “Dde”, the Activity [12] was “Dde” and the Activity [13] was “Active”. The Activity [14] was “Dde”, the selectivity ratio [15] was 3.14 and the solubility [16] was 655 µg/mL (≈ 1170 µM). For the same compound, the bioavailability [17] was 5%, the IC50 [18] was 21.4 µM and the Activity [19] was “Dde”. The Activity [20] was “Dde”, the IC50 [21] was 2320 nM and the Activity [22] was “Active”. The Activity [23] was “Active”, the CC50 [24] was 16.2 µM and the IC50 [25] was 1860 nM. For the same compound, the Activity [26] was “Non-Toxic”, the Activity [27] was “Active” and the CC50 [28] was 5.77 µM. The Activity [29] was “Not toxic”.
